Our source for the Activity values is ChEMBL document CHEMBL1125302, “Prodrugs of nitroxyl as inhibitors of aldehyde dehydrogenase” (J Med Chem, 1992).

The nature of assay [1]: Inhibitory activity against porcine […] dehydrogenase; Active. To be noted: Sus scrofa.
Assay [2] can be described thus: In vitro inhibitory activity against yeast […] dehydrogenase; Active. The conditions noted are these: Saccharomyces cerevisiae.

Activity calls are given as the source filed them. The rule behind the calls is not given here.

`N#CN(OC(=O)c1ccccc1)C(=O)c1ccccc1`: in assay [1], the result was Active.
Regarding `CC(C)(C)OC(=O)N(OC(=O)c1ccccc1)S(=O)(=O)c1ccccc1`, the outcome in assay [2] and in assay [1] was Active.
In the case of `CC(=O)ON(C(=O)OC(C)(C)C)S(=O)(=O)c1ccccc1`, the outcome in assay [2] and in assay [1] was Active.
